According to ChEMBL document CHEMBL1145929, “Syntheses and binding studies of new [(aryl)(aryloxy)methyl]piperidine derivatives and related compounds as potential antidepressant drugs with high affinity for serotonin (5-HT) and norepinephrine (NE) transporters” (J Med Chem, 2003):

How the values were obtained:
[1] = target: Norepinephrine transporter (Rattus norvegicus, UniProt Q9WTR4); test: Binding affinity against norepinephrine transporter (NET) by displacement of [3H]nisoxetine in male wistar rats
[2] = target: Sodium-dependent dopamine transporter (Rattus norvegicus, UniProt P23977); test: Binding affinity against dopamine transporter (DAT) by displacement of [3H]WIN-35428 in male wistar rats
[3] = target: T1, 5-hydroxytryptamine receptor 2A (Rattus norvegicus, UniProt P14842); test: Binding affinity against 5-hydroxytryptamine 2A receptor by displacement of [3H]-ketanserin from rat prefrontal cerebral cortex mambranes; type: tissue-based, Frontal cortex
[4] = target: T2, 5-hydroxytryptamine receptor 1A (Rattus norvegicus, UniProt P19327); test: Binding affinity against 5-hydroxytryptamine 1A receptor (5-HT1A) by displacement of [3H]8-OH-DPAT from rat hippocampus membranes; type: cell membranes, Membrane
T2 sequence (P19327 whole entry): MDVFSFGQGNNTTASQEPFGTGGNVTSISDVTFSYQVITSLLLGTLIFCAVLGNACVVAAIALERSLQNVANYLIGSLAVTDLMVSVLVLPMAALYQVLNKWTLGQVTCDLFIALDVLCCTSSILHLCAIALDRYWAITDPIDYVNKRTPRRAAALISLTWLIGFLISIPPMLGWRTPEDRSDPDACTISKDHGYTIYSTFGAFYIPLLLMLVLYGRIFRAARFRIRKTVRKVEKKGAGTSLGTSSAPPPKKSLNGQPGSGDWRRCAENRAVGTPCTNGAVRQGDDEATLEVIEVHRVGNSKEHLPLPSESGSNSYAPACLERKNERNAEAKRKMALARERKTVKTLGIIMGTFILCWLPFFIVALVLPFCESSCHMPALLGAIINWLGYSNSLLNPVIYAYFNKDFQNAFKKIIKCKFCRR

[5] = target: T3, Sodium-dependent serotonin transporter (Rattus norvegicus, UniProt P31652); test: Binding affinity to the serotonin transporter (SERT) measured by displacement of [3H]paroxetine in male wistar rats
[6] = target: T1, 5-hydroxytryptamine receptor 2A; test: Binding affinity against 5-hydroxytryptamine 2A receptor by displacement of [3H]ketanserin from rat prefrontal cerebral cortex mambranes; type: tissue-based, Frontal cortex
[7] = target: T2, 5-hydroxytryptamine receptor 1A; test: Displacement of [3H]8-OH-DPAT from 5-hydroxytryptamine 1A receptor of rat hippocampus mambranes; type: tissue-based
[8] = target: T3, Sodium-dependent serotonin transporter; test: Binding affinity against serotonin transporter (SERT) by displacement of [3H]paroxetine in male wistar rats
[9] = target: T3, Sodium-dependent serotonin transporter; test: Binding affinity against serotonin transporter (SERT) by displacement of [3H]paroxetine in male wistar rat

Chain of Norepinephrine transporter (Q9WTR4 whole entry): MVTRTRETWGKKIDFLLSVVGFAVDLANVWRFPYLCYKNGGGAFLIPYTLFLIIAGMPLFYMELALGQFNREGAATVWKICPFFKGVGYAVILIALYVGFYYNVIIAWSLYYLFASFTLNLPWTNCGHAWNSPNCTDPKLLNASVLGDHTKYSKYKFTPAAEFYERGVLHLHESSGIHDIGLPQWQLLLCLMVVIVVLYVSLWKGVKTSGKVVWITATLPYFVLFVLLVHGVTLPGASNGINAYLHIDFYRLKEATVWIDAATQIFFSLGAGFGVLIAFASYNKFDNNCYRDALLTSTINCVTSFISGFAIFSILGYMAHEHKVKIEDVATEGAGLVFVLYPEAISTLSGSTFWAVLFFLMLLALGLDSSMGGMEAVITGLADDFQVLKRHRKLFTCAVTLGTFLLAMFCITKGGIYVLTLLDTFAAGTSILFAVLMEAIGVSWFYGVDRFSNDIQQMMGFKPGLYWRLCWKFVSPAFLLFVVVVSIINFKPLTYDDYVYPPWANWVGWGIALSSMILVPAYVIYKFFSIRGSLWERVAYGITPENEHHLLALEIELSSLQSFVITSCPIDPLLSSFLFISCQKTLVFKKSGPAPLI
T1 sequence (P14842 whole entry): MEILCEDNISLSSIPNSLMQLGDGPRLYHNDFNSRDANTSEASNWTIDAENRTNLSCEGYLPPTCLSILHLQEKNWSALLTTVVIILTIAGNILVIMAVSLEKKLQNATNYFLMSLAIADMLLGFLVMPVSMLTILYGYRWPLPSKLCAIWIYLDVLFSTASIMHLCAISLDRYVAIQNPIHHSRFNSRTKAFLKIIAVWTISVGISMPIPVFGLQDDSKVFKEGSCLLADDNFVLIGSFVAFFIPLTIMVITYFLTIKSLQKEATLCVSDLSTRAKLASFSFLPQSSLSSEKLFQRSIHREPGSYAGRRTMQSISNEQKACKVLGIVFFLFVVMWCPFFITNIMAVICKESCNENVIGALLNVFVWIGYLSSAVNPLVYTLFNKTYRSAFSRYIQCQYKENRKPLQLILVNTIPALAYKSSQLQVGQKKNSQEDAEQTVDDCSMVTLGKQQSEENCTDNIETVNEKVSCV
Chain of Sodium-dependent dopamine transporter (P23977 whole entry): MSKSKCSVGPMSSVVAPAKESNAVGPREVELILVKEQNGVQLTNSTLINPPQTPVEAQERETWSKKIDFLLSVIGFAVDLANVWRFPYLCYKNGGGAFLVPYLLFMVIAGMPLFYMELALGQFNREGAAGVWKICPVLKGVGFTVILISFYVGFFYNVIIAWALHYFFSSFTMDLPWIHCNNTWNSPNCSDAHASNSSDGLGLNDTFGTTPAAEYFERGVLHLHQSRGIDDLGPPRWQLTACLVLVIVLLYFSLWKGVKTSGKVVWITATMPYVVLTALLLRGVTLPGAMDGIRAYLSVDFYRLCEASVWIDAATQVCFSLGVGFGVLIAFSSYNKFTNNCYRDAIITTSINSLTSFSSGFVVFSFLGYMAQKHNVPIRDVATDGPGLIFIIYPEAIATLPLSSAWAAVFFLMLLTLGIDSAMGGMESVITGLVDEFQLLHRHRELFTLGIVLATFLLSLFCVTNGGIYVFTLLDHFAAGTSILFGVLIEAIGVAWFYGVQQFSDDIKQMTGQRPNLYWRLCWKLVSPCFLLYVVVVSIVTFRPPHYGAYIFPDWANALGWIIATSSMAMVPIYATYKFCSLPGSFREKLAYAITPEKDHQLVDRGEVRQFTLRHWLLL
T3 sequence (P31652 whole entry): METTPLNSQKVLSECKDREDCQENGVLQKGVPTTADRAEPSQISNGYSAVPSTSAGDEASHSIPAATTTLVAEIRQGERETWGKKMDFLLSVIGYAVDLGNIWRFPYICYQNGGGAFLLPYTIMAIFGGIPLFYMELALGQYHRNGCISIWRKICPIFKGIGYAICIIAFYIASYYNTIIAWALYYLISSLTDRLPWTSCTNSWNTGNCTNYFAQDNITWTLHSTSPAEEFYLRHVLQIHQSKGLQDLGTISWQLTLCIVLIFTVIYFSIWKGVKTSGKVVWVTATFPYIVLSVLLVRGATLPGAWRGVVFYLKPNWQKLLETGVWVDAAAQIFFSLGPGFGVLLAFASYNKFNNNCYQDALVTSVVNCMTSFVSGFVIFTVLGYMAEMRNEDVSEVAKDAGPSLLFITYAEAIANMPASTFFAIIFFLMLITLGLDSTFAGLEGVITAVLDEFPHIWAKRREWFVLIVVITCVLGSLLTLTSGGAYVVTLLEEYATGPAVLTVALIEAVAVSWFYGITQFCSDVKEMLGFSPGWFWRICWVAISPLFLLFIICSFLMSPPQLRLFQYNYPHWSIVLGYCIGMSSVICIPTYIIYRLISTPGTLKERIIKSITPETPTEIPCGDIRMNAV

Row | Structure (SMILES) | IC50 [3] [µM] | IC50 [4] [µM] | Ki [6] [µM] | Ki [7] [µM] | IC50 [8] [µM] | IC50 [1] [µM] | IC50 [2] [µM] | also measured
1 | OC1(c2ccc(Cl)cc2)c2ccccc2C2=NCCN21 (centres undefined) [MAZINDOL] | > 1 | > 1 |  |  |  |  |  | Ki [1]: 0.0008 µM; Ki [2]: 0.0443 µM; Ki [5]: 0.248 µM
2 | FC(F)(F)c1ccccc1OC(CCN1CCN(c2nsc3ccccc23)CC1)c1ccccc1 (centres undefined) |  |  | 0.0241 | 0.446 | > 1 |  |  | 
3 | CN1CCN2c3ncccc3Cc3ccccc3C2C1 (centres undefined) [MIRTAZAPINE] |  | > 1 |  |  | > 1 | > 1 | > 1 | 
4 | O=C(CCC(Oc1ccccc1F)c1ccccc1)C1CCN(c2ccc(F)cc2)CC1 (centres undefined) |  |  | 0.008 | 0.0378 | > 1 |  |  | 
5 | Fc1ccccc1OC(c1ccccc1)C1CCNCC1 (single isomer, unassigned; (-)) | > 1 | > 1 |  |  |  |  | > 1 | Ki [1]: 0.0225 µM
6 | FC(F)(F)c1ccc(OC(c2ccccc2)C2CCNCC2)cc1 (single isomer, unassigned; (-)) |  |  |  |  |  | > 1 | > 1 | 
7 | Fc1cccc(C(Oc2ccccc2F)C2CCNCC2)c1 (single isomer, unassigned; (+)) | > 1 | > 1 |  |  |  |  |  | Ki [1]: 0.0481 µM
8 | Fc1ccccc1OC(CCN1CCN(c2noc3ccccc23)CC1)c1ccccc1 (centres undefined) |  |  | 0.0172 | 0.118 | > 1 |  |  | 
9 | Brc1ccc(OC(c2ccccc2)C2CCNCC2)cc1 (single isomer, unassigned; (+)) | > 1 | > 1 |  |  |  | > 1 | > 1 | Ki [5]: 0.0232 µM
10 | Fc1ccccc1OC(c1ccccc1)C1CCNCC1 (single isomer, unassigned; (+)) | > 1 | > 1 |  |  |  |  |  | Ki [1]: 0.0414 µM; Ki [2]: 0.52 µM; Ki [5]: 0.0285 µM
11 | COc1ccc(OC(CCC(=O)C2CCN(c3ccc(F)cc3)CC2)c2ccccc2)cc1 (centres undefined) |  |  | 0.0538 | 0.0936 | > 1 |  |  | 
12 | Fc1cccc(OC(c2ccccc2)C2CCNCC2)c1 (stereo in doubt; (+)-15j) | > 1 | > 1 |  |  |  |  |  | Ki [1]: 0.0983 µM; Ki [2]: 0.163 µM
13 | Fc1ccccc1OC(CCN1CCN(c2nsc3ccccc23)CC1)c1ccccc1 (centres undefined) |  |  | 0.0053 | 0.0702 |  |  |  | IC50 [9]: > 1 µM
14 | O=[N+]([O-])c1ccc(OC(c2ccccc2)C2CCNCC2)cc1 (single isomer, unassigned; (-)) | > 1 | > 1 |  |  |  | > 0.5 | > 1 | Ki [5]: 0.0006 µM
15 | Fc1cccc(OC(c2ccccc2)C2CCNCC2)c1 (stereo in doubt; (-)-15j) | > 1 | > 1 |  |  |  |  |  | Ki [1]: 0.0135 µM
16 | Brc1ccc(OC(c2ccccc2)C2CCNCC2)cc1 (single isomer, unassigned; (-)) | > 1 | > 1 |  |  |  | > 0.5 | > 1 | Ki [5]: 0.0057 µM
17 | FC(F)(F)c1ccc(OC(c2ccccc2)C2CCNCC2)cc1 (stereo in doubt; (+)-15q) |  |  |  |  |  | > 1 | > 1 | 
18 | CCCN(CCC)C1CCc2cccc(O)c2C1 (centres undefined) [8-OH-DPAT] | > 1 |  |  |  | > 1 | > 1 | > 1 | 
19 | c1ccc(C(Oc2cccc3ccccc23)C2CCNCC2)cc1 (single isomer, unassigned; (+)) | > 1 | > 1 |  |  |  |  | > 1 | Ki [1]: 0.417 µM; Ki [5]: 0.0201 µM
20 | O=[N+]([O-])c1ccc(OC(CCN2CCN(c3n[o+][c-]4ccccc34)CC2)c2ccccc2)cc1 (centres undefined) |  |  | 0.0533 | 0.254 | > 1 |  |  | 
21 | Fc1cccc(C(Oc2ccccc2F)C2CCNCC2)c1 (single isomer, unassigned; (-)) | > 1 | > 1 |  |  |  |  | > 0.5 | Ki [1]: 0.0191 µM; Ki [5]: 0.0043 µM
22 | COc1ccc(OC(CCN2CCN(c3noc4ccccc34)CC2)c2ccccc2)cc1 (centres undefined) |  |  | 0.0189 | 0.182 | > 1 |  |  | 
23 | Nc1ccc(OC(CCC(=O)C2CCN(c3ccc(F)cc3)CC2)c2ccccc2)cc1 (centres undefined) |  |  | 0.0164 | 0.108 | > 1 |  |  | 
24 | CN1CCC(C(Oc2ccc(F)cc2)c2ccccc2)CC1 (centres undefined) |  | > 1 | 0.0444 |  | > 1 |  |  | 
25 | c1ccc(-c2ccccc2OC(c2ccccc2)C2CCNCC2)cc1 (centres undefined) |  | > 1 | 0.149 |  | > 1 |  |  | 
26 | c1ccc(C(Oc2cccc3ccccc23)C2CCNCC2)cc1 (stereo in doubt; (-)-15au) | > 1 | > 1 |  |  |  | > 1 | > 1 | Ki [5]: 0.0281 µM
27 | COc1ccc(OC(CCN2CCN(c3nsc4ccccc34)CC2)c2ccccc2)cc1 (centres undefined) |  |  | 0.0102 | 0.0697 | > 1 |  |  | 
28 | O=C(CCC(Oc1ccc([N+](=O)[O-])cc1)c1ccc(F)cc1)C1CCN(c2ccc(F)cc2)CC1 (centres undefined) |  | > 1 | 0.0551 |  | > 1 |  |  | 
29 | O=[N+]([O-])c1ccc(OC(c2ccccc2)C2CCNCC2)cc1 (single isomer, unassigned; (+)) | > 1 | > 1 |  |  |  | > 1 | > 1 | 
30 | FC(F)(F)c1ccc(OC(CCN2CCN(c3nsc4ccccc34)CC2)c2ccccc2)cc1 (centres undefined) |  |  | 0.0402 | 0.0337 | > 1 |  |  | 
